Test results published in paper PMC9822400, “The Lipophilic Purine Nucleoside—Tdp1 Inhibitor—Enhances DNA Damage Induced by Topotecan In Vitro and Potentiates the Antitumor Effect of Topotecan In Vivo” (Molecules, 2022).
Entries after “also recorded” stand apart in the source; their conditions may differ.

Tested on: HeLa cells
Assay: Alkaline Comet assay, accumulation of DNA damage
Type: cell-based
Conditions: for Amount of DNA damage (% DNA in tail) in combination with Tpc compared to only Tpc: 10 μM Tpc + compound; for DNA in tail: 1 h; for Effect of the compound alone on the integrity of DNA: compound alone in concentrations up to 1 mM, compared to untreated or 1% DMSO
Text: We studied the effect of Tdp1 inhibitors 5f and 6d on the accumulation of DNA damage by single-cell gel electrophoresis (Comet assay). […] This method has proven to be a simple, fast, and a quite sensitive way to detect DNA damage at the level of a single cell, allowing one to analyze almost any eukaryotic cell culture. Several analysis options allow one to visualize various types of DNA damage: single- and double-stranded breaks and alkaline-labile sites. This allows this method to be widely used in fundamental studies of DNA damage and repair and in testing the genotoxicity of new chemical and pharmaceutical drugs in vitro and in vivo [51, 52]. To study potential drugs, the alkaline version of the method (pH > 13) proposed by Singh and co-authors is widely used. This method allows the detection of all types of DNA damage with high sensitivity. In cells with a large amount of DNA damage, the structural organization and integrity of DNA are disrupted, which leads to its relaxation and/or fragmentation. As a result, cellular DNA in an electric field gives the observed objects the appearance of a “comet”.
Before studying the effect of Tdp1 inhibitors on the accumulation of DNA damage, it was necessary to find out how long the generation of DNA damage by Tpc and their repair take place in HeLa cells. To do this, cell culture was treated with Tpc at 1, 10, and 100 μM concentrations for 30 min, 1, 2, and 3 h and the level of damage to individual cells was monitored by Comet assay. It was shown that Tpc caused the greatest amount of damage after 30 minutes’ treatment. After this time, the repair systems began to correct these lesions and as a result, after 3 h most of them have been eliminated (Figure S9). […] The level of DNA damage at this point was enough to be detected, the data were reproducible, and can be evaluated by the Comet assay. The effect could be enhanced by the tested compounds without leading to cell death. It was important for us to see this enhancement in the presence of our compounds.
HeLa cell culture was grown in a 24-well plate to a concentration of 0.05 million/mL, then treated with the tested compounds and incubated for 1 h. To obtain a cell suspension, the cells were treated with trypsin (30 µL in each well for 5 min at 37 °C), and then 200 µL of PBS + 10% FBS were added to each well.
The resulting cell suspension (50 µL) was mixed with 250 µL of a 1% solution of molten low melting agarose (CertifiedTM LMAgarose; BIO-RAD), 250 µL of this mixture was transferred to the slides pre-coated with a 1% normal melting agarose (Agarose; Helicon), and left for several minutes at 4 °C to solidify. The resulting slides were incubated in a lysing solution (2.5 M NaCl, 100 mM EDTA, 10 mM Tris base, 1% Triton, 5% DMSO, pH 10.0) for an hour at 4 °C. Then the slides were immersed in an electrophoretic buffer (300 mM NaOH, 1 mM EDTA, pH > 13) for 45 min at 4 °C. Electrophoresis was performed at 20 V, 450 mA for 10 min while cooling on ice. After that, the slides were immersed 2 times for 5 min in 0.4 M Tris-HCl pH 7.5 solution for neutralization, washed twice with cold water, and stained with SYBR Green I (excitation maximum at 497 nm, emission maximum at 520 nm; Thermo Fisher Scientific KK).
The images were obtained using a CELENA © S digital microscope (Logos Biosystems, Inc., Annandale, VA, USA) and analyzed with Comet analysis software (Trevigen, Inc., Gaithersburg, MD, USA. In all experiments, 2 slides were evaluated for each sample by counting at least 200 cells on the glass. As a parameter for measuring the level of DNA damage, the median value of the percentage of DNA in the tail was chosen (% Tail DNA = 100 × the intensity of DNA fluorescence in the tail of the comet/the intensity of fluorescence of the total DNA of the comet).

[1] = compound 10 μM + Topotecan 10 μM
[2] = compound 50 μM + Topotecan 10 μM
[3] = compound 200 μM + Topotecan 10 μM

| SMILES | Amount of DNA damage (% DNA in tail) in combination with Tpc compared to only Tpc | DNA in tail [1] | DNA in tail [2] | DNA in tail [3] | Effect of the compound alone on the integrity of DNA | Reduction of the topotecan dose required to produce a serious level of DNA damage (Tpc 1 μM + 6d 5 μM similar to only Tpc 10 μM) |
| --- | --- | --- | --- | --- | --- | --- |
| O[C@@H]1[C@H](O)[C@@H](COC(c2ccccc2)(c2ccccc2)c2ccccc2)O[C@H]1n1cnc2c(NC(c3ccccc3)(c3ccccc3)c3ccccc3)ncnc21 [compound 5f] | did not significantly differ | 37±3% | 40±3% | 42±4% | did not affect the integrity of DNA | – |
| O=C(OC[C@H]1O[C@@H](n2cnc3c(Cl)nc(Cl)nc32)[C@H](OC(=O)c2ccccc2)[C@@H]1OC(=O)c1ccccc1)c1ccccc1 [compound 6d, 2,6-dichloro-9-(2,3,5-tri-O-benzoyl-β-D-ribofuranosyl)purine] | increased the amount of DNA damage | 50±2% | 65±6% | 71±4% | did not affect the integrity of DNA; also recorded: does not cause DNA damage by itself | 10 times |
